Test results published in patent US12440525B2 (priority 2017, dated 2025).
Where a name gives a salt, the structure may show the parent alone. Read-outs that look alike come from different tables or passages of the source.

Experiments:
[1] = system: VSVΔ51; assay type: cell-based, Vesicular stomatitis virus
[2] = system: STAT1; assay type: cell-based, human
[3] = system: VSVΔ51; assay type: cell-based, Vesicular stomatitis virus; remark: listed apart in the source
[4] = system: IFITM1; assay type: cell-based, human
[5] = system: HT29 tumors; conditions: mouse, in vivo
[6] = system: wtVSV; assay type: cell-based, Vesicular stomatitis virus
[7] = system: VSVΔ51; assay type: cell-based, Vesicular stomatitis virus; remark: listed apart in the source
[8] = system: 786-0 cells; assay type: cell-based, human
[9] = system: NF-κB subunit p65; assay type: cell-based, human
[10] = system: Sindbis virus; assay type: cell-based
[11] = system: wild-type VSV (wtVSV); assay type: cell-based, Vesicular stomatitis virus
[12] = system: VSV-viral proteins; assay type: cell-based, Vesicular stomatitis virus
[13] = system: VSVΔ51; assay type: cell-based, Vesicular stomatitis virus; remark: listed apart in the source
[14] = system: B16F10 cells; assay type: cell-based, murine
[15] = system: STAT1; assay type: cell-based, human; remark: listed apart in the source
[16] = system: STAT2; assay type: cell-based, human
[17] = system: VSVΔ51; assay type: cell-based, Vesicular stomatitis virus; remark: listed apart in the source
[18] = system: VSVΔ51; assay type: cell-based, Vesicular stomatitis virus; remark: listed apart in the source
[19] = system: CT26WT tumors; conditions: mouse, in vivo
[20] = system: VSVΔ51; assay type: cell-based, Vesicular stomatitis virus; remark: listed apart in the source
[21] = system: HSV-1 mutant N212; assay type: cell-based, herpes simplex virus
[22] = system: CT26WT cells; assay type: cell-based, murine
[23] = system: VSVΔ51; assay type: cell-based, Vesicular stomatitis virus; remark: listed apart in the source
[24] = system: B16F10 tumors; conditions: mouse, in vivo
[25] = system: VSVΔ51; assay type: cell-based, Vesicular stomatitis virus; remark: listed apart in the source
[26] = system: VSVΔ51; assay type: cell-based, Vesicular stomatitis virus; remark: listed apart in the source
[27] = system: E1A-deleted Ad5; assay type: cell-based, adenovirus serotype 5
[28] = system: replication incompetent lentivirus; assay type: cell-based

CCOC(=O)/C=C\C(=O)OCC [DEM, diethyl maleate]
VSVΔ51 infection, spread, and oncolysis [1]: robustly enhanced | STAT1 phosphorylation in cells conditioned with IFNβ [2]: inhibited STAT1 phosphorylation | VSVΔ51 infection, spread, and oncolysis [3]: robustly enhanced

COC(=O)CCC(=O)OC [DMS, dimethyl succinate]
viral output of VSVΔ51 [1]: no impact on viral output

COC(=O)/C=C/C(=O)OC [DMF, dimethyl fumarate]
expression levels of the antiviral protein IFITM1 [4]: potently repressed | survival, combination therapy compared with either monotherapy [5]: significantly prolonged survival | tumor progression, combination therapy DMF + VSVΔ51 [5]: considerable delay in tumor progression | virus-associated luciferase gene expression in tumors [5]: enhanced virus-associated luciferase gene expression | protective (suppressive) effect of VSVΔ51ΔG-infected cell supernatant on subsequent infection [6]: completely overcome this suppressive effect | average plaque diameter of VSVΔ51 [7]: substantially increased | cell viability, combined treatment with VSVΔ51 [8]: synergistic decrease in cell viability | phosphorylation and translocation of NF-κB subunit p65 upon TNFα stimulation [9]: inhibits phosphorylation and translocation | phosphorylation and translocation of NF-κB subunit p65 upon infection [9]: inhibits phosphorylation and translocation | viral output of Sindbis virus [10]: improved viral output | infection of 786-0 cells by wild-type VSV [11]: no impact on infection | VSV-viral proteins [12]: increased | protective (suppressive) effect of VSVΔ51ΔG-infected cell supernatant on subsequent infection [13]: completely overcome this suppressive effect | cell viability, combined treatment with VSVΔ51 [14]: synergistic decrease in cell viability | activation (phosphorylation) of STAT1 [15]: decreased activation (phosphorylation) | activation (phosphorylation) of STAT2 [16]: decreased activation (phosphorylation) | VSVΔ51 infection in patient-derived cancer cell lines [17]: increased VSVΔ51 infection | Virus-encoded GFP expression [1]: greatly enhanced | increase of VSVΔ51 virus growth [1]: more than 100 fold | infection of VSVΔ51 [1]: enhanced infection | pre-treatment time prior to infection at which the enhancing effect was observed [1]: up to 24 hours | time post-infection of treatment at which the enhancing effect was observed [1]: up to 8 hours | viral output of VSVΔ51, growth curve at low MOI [1]: enhanced the viral output | increase of VSVΔ51 infection ex vivo in primary human tumor samples [18]: > 10 fold | challenge of cured mice with a foreign tumor [19]: grew 4T1 tumors at a similar rate as the naive mice | mice with complete remission, combination therapy [19]: approximately 20% | re-challenge of cured mice with the same cancer cells [19]: immune to re-challenge | survival, combination therapy compared with either monotherapy [19]: significantly prolonged survival | tumor progression, combination therapy DMF + VSVΔ51 [19]: considerable delay in tumor progression | virus-associated luciferase gene expression in tumors [19]: enhanced virus-associated luciferase gene expression | VSVΔ51 infection in panel of cancer cell lines [20]: robustly enhanced infection | STAT1 phosphorylation in cells conditioned with IFNβ [2]: inhibited STAT1 phosphorylation | viral output of oncolytic herpes virus [21]: improved viral output | cell viability, combined treatment with VSVΔ51 [22]: synergistic decrease in cell viability | virus growth in human normal tissues [23]: did not improve virus growth | mice with complete remission, combination therapy [24]: approximately 20% | survival, combination therapy compared with either monotherapy [24]: significantly prolonged survival | tumor progression, combination therapy DMF + VSVΔ51 [24]: considerable delay in tumor progression | antiviral effects of Type I IFN pretreatment on VSVΔ51 infection [25]: antagonized the antiviral effects | virus growth in normal tissue cores [26]: did not increase virus growth | increase of luciferase transgene expression [27]: up to 20 fold

COC(=O)/C=C\C(=O)OC [DMM, dimethyl maleate]
VSVΔ51 infection, spread, and oncolysis [1]: robustly enhanced | VSVΔ51 infection, spread, and oncolysis [3]: robustly enhanced

O=C(O)/C=C/C(=O)O [FA, fumaric acid]
infection of VSVΔ51 / viral growth [1]: no impact on viral growth

CCOC(=O)/C=C/C(=O)OCC [DEF, diethyl fumarate]
VSVΔ51 infection, spread, and oncolysis [1]: robustly enhanced | VSVΔ51 infection, spread, and oncolysis [3]: robustly enhanced

COC(=O)/C=C/C(=O)O [MMF, monomethyl fumarate]
increase in lentivirus yield [28]: 2.4 fold
